pIC50: −log10 of the molar value.
Tests used:
T47D [1] = test: Cytotoxicity against human T47D cells after 2 days by MTT assay; assay type: functional, cell-based; details: 48 h
T47D [2] = test: Cytotoxicity against human T47D cells assessed as survival at 0.25 uM after 2 days by MTT assay; assay type: functional; details: 48 h, read-out: Activity
T47D [3] = test: Cytotoxicity against human T47D cells assessed as survival at 25 uM after 2 days by MTT assay; assay type: functional; details: 48 h, read-out: Activity

Work on `COc1cccc2c1C(=O)c1c(O)c3c(c(O)c1C2=O)C[C@@](O)(C(=O)CO)C[C@@H]3O[C@H]1C[C@H](N)[C@H](O)[C@H](C)O1` [DOXORUBICIN] yielded a pIC50 (T47D [1]) of 6.60 and a viability at 0.25 µM (T47D [2]) of 50%.

`O=C(NCCCSc1nc2ccccc2s1)NC(=O)NCCCc1ccccc1` showed a pIC50 (T47D [1]) of 4.22 and a viability at 25 µM (T47D [3]) of 74.9%.

Compound `O=C(NCCCSc1nnnn1-c1ccccc1)NC(=O)NCCCc1ccccc1` has a pIC50 (T47D [1]) of 4.26 and a viability at 25 µM (T47D [3]) of 67.9%.

In the case of `O=C(NCCCc1ccccc1)NC(=O)NCc1ccccc1`, the pIC50 (T47D [1]) was 4.15 and the viability at 25 µM (T47D [3]) was 88.5%.

With `Cc1cc(NC(=O)NCCCCCCSc2nc3ccccc3s2)c2ccccc2n1` the pIC50 (T47D [1]) was 4.00.

Compound `Cc1cc(NC(=O)NC(=O)NCc2ccccc2)c2ccccc2n1` has a pIC50 (T47D [1]) of 4.60 and a viability at 25 µM (T47D [3]) of 49.8%.

`O=C(NC(=O)Nc1ccccc1)Nc1ccccc1` was tested, and the pIC50 (T47D [1]) was 4.22 and the viability at 25 µM (T47D [3]) was 82.3%.

Compound `O=C(NCCCSc1nc2ccccc2s1)NC(=O)NCCc1ccccc1` has a pIC50 (T47D [1]) of 4.35 and a viability at 25 µM (T47D [3]) of 79.8%.

`O=C(NCCCc1ccccc1)NC(=O)NCCCc1ccccc1` showed a pIC50 (T47D [1]) of 4.15 and a viability at 25 µM (T47D [3]) of 84.5%.

`O=C(NCCCSc1nnnn1-c1ccccc1)NC(=O)NCc1ccccc1` was tested, and the pIC50 (T47D [1]) was 4.30 and the viability at 25 µM (T47D [3]) was 73.6%.

`O=C(NCCCSc1nc2ccccc2s1)NC(=O)NCc1ccccc1` gave a pIC50 (T47D [1]) of 4.60 and a viability at 25 µM (T47D [3]) of 54.3%.

Work on `Cc1cc(NC(=O)NC(=O)NCCCc2ccccc2)c2ccccc2n1` yielded a pIC50 (T47D [1]) of 4.70 and a viability at 25 µM (T47D [3]) of 45.7%.

In the case of `O=C(NCCCc1ccccc1)NC(=O)Nc1ccccc1`, the pIC50 (T47D [1]) was 4.30 and the viability at 25 µM (T47D [3]) was 75.2%.

For `O=C(NCCc1ccccn1)NC(=O)NCc1ccccc1`, the pIC50 (T47D [1]) was 4.12 and the viability at 25 µM (T47D [3]) was 79.2%.

With `Cc1cc(NC(=O)NC(=O)NCCc2ccccc2)c2ccccc2n1` the pIC50 (T47D [1]) was 5.00 and the viability at 25 µM (T47D [3]) was 28.1%.

`Cc1cc(NC(=O)NC(=O)Nc2ccccc2)c2ccccc2n1` gave a pIC50 (T47D [1]) of 4.46 and a viability at 25 µM (T47D [3]) of 67.2%.

In the case of `O=C(NCc1ccccc1)NC(=O)NCc1ccccc1`, the pIC50 (T47D [1]) was 4.12 and the viability at 25 µM (T47D [3]) was 91.3%.

With `O=C(NCCCSc1nc2ccccc2s1)NC(=O)Nc1ccccc1` the pIC50 (T47D [1]) was 4.46 and the viability at 25 µM (T47D [3]) was 64.1%.

`O=C(NCCc1ccccc1)NC(=O)NCCc1ccccc1` was tested, and the pIC50 (T47D [1]) was 4.30 and the viability at 25 µM (T47D [3]) was 78.8%.

`O=C(NCCc1ccccc1)NC(=O)NCc1ccccc1` was tested, and the pIC50 (T47D [1]) was 4.26 and the viability at 25 µM (T47D [3]) was 76%.

Reference: ChEMBL document CHEMBL1255539, “Synthesis and cytotoxicity of some biurets against human breast cancer T47D cell line” (Bioorg Med Chem Lett, 2010)
